Blank lines part the entries; values can stand above or below the molecule they belong to.
Columns and labels:
[1] = target: T1, cAMP-dependent protein kinase catalytic subunit PRKX (Homo sapiens) (UniProt P51817); settings: at 10 µM
T1 sequence (whole entry): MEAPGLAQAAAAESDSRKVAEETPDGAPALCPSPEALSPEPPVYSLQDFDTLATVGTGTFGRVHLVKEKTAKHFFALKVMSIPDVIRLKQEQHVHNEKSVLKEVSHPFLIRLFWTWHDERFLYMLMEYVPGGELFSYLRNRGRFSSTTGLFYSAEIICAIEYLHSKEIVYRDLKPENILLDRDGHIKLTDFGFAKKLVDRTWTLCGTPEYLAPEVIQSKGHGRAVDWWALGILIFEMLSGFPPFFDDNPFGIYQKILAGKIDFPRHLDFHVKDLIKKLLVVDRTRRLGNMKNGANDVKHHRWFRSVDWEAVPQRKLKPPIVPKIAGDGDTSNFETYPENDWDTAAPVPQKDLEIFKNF

[2] = target: Casein kinase I isoform gamma-2 (Homo sapiens) (UniProt P78368); test: Selectivity interaction (KinomeScan (DiscoverX)) EUB0001049a CSNK1G2; settings: at 1 µM
Sequence of Casein kinase I isoform gamma-2 (Homo sapiens) (P78368 whole entry, looked up, canonical isoform): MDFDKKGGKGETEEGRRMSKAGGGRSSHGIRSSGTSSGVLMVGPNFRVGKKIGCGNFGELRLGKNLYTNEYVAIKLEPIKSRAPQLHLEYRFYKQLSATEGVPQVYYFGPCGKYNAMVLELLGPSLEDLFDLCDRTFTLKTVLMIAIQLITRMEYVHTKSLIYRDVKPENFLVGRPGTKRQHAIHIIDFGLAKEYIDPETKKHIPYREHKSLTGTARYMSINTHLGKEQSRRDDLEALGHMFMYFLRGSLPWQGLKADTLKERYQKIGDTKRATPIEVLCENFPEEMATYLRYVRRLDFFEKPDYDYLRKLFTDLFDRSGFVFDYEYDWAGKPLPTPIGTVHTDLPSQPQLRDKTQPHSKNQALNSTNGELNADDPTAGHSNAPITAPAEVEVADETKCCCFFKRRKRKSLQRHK

[3] = target: T2, Histone-lysine N-methyltransferase NSD3 (Homo sapiens) (UniProt Q9BZ95); settings: at 10 µM
T2 sequence (whole entry): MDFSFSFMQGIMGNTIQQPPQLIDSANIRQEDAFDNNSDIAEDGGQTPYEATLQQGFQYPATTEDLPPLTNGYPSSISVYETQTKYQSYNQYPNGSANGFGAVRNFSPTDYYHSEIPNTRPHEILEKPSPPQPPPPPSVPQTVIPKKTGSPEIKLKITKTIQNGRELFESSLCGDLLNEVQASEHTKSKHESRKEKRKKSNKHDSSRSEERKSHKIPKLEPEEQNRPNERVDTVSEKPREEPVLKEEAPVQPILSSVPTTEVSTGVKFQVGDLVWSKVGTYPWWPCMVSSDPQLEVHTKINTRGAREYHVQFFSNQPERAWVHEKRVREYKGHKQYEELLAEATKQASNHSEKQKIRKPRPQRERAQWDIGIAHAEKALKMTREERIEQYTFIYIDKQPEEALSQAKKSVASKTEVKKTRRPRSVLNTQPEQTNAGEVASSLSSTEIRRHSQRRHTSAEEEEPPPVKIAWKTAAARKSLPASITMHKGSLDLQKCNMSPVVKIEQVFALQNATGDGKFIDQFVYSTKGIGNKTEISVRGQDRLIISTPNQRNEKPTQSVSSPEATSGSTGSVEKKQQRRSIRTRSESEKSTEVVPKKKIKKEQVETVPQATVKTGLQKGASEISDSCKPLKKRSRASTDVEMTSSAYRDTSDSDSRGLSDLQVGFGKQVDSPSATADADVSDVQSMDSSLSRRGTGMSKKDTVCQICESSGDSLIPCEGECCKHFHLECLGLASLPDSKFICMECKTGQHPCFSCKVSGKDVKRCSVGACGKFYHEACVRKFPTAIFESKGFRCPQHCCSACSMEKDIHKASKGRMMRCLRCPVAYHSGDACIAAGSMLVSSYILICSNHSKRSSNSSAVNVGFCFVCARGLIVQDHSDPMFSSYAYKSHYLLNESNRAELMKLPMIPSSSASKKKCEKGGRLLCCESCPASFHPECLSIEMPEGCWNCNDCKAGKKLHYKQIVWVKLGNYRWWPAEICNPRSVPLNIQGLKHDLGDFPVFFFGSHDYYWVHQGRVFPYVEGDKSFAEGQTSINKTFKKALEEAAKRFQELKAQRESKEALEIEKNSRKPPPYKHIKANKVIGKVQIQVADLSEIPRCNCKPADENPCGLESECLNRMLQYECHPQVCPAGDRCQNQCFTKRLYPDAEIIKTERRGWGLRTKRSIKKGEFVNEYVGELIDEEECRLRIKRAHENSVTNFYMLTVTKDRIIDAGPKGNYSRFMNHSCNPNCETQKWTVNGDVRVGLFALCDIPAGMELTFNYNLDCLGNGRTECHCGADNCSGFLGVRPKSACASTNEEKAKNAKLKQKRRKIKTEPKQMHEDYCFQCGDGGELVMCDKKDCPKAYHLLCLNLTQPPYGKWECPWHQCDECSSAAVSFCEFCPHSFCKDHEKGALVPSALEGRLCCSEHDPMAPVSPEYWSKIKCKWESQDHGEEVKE

[4] = target: T3, Dual specificity protein kinase TTK (Homo sapiens) (UniProt P33981); test: Selectivity interaction (KinomeScan (DiscoverX)) EUB0000666a TTK; settings: at 10 µM
T3 sequence (whole entry): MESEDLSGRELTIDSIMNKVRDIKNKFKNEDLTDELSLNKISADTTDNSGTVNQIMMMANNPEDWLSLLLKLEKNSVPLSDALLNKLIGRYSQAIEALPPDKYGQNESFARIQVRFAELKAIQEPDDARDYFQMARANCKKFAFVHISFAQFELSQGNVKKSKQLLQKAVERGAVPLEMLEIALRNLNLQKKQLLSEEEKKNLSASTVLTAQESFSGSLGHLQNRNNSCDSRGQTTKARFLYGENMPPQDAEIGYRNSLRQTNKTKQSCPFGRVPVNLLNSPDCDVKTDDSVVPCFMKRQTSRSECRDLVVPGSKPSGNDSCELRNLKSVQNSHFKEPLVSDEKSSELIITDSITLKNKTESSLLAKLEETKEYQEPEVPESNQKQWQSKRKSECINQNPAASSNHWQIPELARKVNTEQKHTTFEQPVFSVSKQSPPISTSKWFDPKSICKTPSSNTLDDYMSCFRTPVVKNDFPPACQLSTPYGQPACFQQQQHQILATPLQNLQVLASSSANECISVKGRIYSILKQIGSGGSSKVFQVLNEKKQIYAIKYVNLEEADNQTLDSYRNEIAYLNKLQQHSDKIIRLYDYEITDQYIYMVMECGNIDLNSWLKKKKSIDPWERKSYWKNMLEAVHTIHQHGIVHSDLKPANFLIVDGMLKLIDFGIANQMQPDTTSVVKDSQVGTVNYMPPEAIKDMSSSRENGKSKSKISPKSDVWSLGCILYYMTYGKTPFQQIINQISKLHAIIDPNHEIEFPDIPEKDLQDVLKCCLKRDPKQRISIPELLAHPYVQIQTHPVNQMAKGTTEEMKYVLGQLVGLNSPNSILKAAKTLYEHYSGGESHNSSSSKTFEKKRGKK

SMILES: Cc1cc([C@@H](C)Nc2ccccc2C(=O)O)c2nc(N3CCOCC3)cc(=O)n2c1 [AZD-6482]
% of control [1]: 91%

SMILES: COc1cc(Nc2nc(C)cc(-c3cnn4nc(OC)ccc34)n2)cc(C(F)(F)F)c1
% of control [2]: 97%

% activity [3]: > 90%
SMILES: CNCCN1CCC(c2cc(CN(C)C(=O)c3cccc(Oc4ccccc4)c3)ccn2)CC1

SMILES: O=C(NOC[C@H](O)CO)c1ccc(F)c(F)c1Nc1ccc(I)cc1F
% of control [4]: 100%

Reference: ChEMBL document CHEMBL5465560, “Selectivity Literature for EUbOPEN Chemogenomic Library” (2024)
